Source: patent US20080255099A1 (priority 2004, published 2008)
pIC50: −log10 of the molar value. Read-outs that look alike come from different tables or passages of the source.

Key:
[1] = tested on: HeLa; details: HeLa cells; T. Saito et al. 1985; cited from earlier work
[2] = tested on: secreted VEGF; assay: Secreted VEGF ELISA test in Hep3B-VEGF Luciferase cells under deferoxamine-induced hypoxia; type: cell-based, human; details: deferoxamine 100 μM, 18-20 h, read-out: IC50 for inhibition of secreted VEGF (ELISA)
[3] = tested on: VEGF promoter; assay: Luciferase assay for inhibition of the VEGF promoter in Hep3B-VEGF Luciferase cells; type: cell-based, human; details: deferoxamine 100 μM, 18-20 h, read-out: IC50 for inhibition of luciferase signal (VEGF promoter)
[4] = biological target: T1, Biot-Hif-1α^786-826/GST-p300^323/423 (Homo sapiens, UniProt Q09472); assay: Inhibition of Hif-1α/p300 interaction, DELFIA fluorescence assay; type: binding; details: for inhibition of the interaction between Hif-1α and p300 (in words): fluorescency assay adapted from Freedman et al.
T1 construct: the p300 region comprised between the 323-423 aminoacids; made in house; host or cells: E. coli BL21 (DE3), vector pGEX-4T-1
T1 sequence (Q09472 323-423): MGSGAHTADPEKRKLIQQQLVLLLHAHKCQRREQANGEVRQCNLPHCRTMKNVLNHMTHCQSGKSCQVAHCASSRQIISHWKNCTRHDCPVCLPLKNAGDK

[5] = tested on: tumor growth; details: tumor-bearing mice; Kung et al. 2004; cited from earlier work

In the case of `CN1C(=O)[C@]23SS[C@@]1(CO)C(=O)N2[C@H]1Nc2ccccc2C1([C@@]12c4ccccc4N[C@@H]1N1C(=O)[C@]4(CO)SS[C@]1(C(=O)N4C)[C@H]2O)[C@@H]3O` (stereo partly drawn) [11α,11α′-dihydroxy Chaetocin, reference compound], the “cytotoxic activity IC50” value [1] is given as “about 0.03 μg/mL”.
In the case of `CN1C(=O)[C@@]23CC4([C@]56C[C@@]78SS[C@@](CO)(C(=O)N7[C@H]5Nc5ccccc56)N(C)C8=O)c5ccccc5N[C@@H]4N2C(=O)[C@]1(CO)SS3` (stereo partly shown) [chaetocin], the pIC50 ([2]; Homo sapiens) is listed as 7.00, the pIC50 ([3]; Homo sapiens) is listed as 7.40 and the “cytotoxic activity IC50” value [1] is listed as “about 0.03 μg/mL”. For the same molecule, the pIC50 [4] was 4.90 and the “inhibition of the interaction between Hif-1α and p300 (in words)” value [4] was “able to inhibit the interaction between Hif-1α and p300”.
For `CN1C(=O)[C@]2(Cc3cn(C45C[C@@]67SS[C@@](CO)(C(=O)N6[C@H]4Nc4ccccc45)N(C)C7=O)c4ccccc34)SS[C@@]1(CO)C(=O)N2C` (stereo partly shown) [chaetomin], the “tumor growth and hypoxia-induced transcription in the tumor (in words)” value [5] is listed as “inhibits hypoxia-induced transcription in the tumor and tumor growth”.
In the case of gliotoxin, the pIC50 [2] was 6.70, the pIC50 [3] was 7.30 and the “inhibition of the interaction between Hif-1α and p300 (in words)” value [4] was “able to inhibit the interaction between Hif-1α and p300”.
